Results taken from PMC4595607, “mRNA export through an additional cap-binding complex consisting of NCBP1 and NCBP3” (Nature Communications, 2015).
Changes are numbered by the printed parent chain.

What was measured:
[1] = target: T1, NCBP3 (aa 1-282); C17orf85 (Homo sapiens, UniProt Q53F19); experiment: affinity purification on m7GTP-agarose, Coomassie SDS-PAGE; type: binding; conditions: compound immobilised as γ-aminohexyl m7GTP-agarose
T1 construct: N-terminal fragment 1-282 with core RRM; expressed in E. coli BL21-AI, purified; untagged for MST and CD (MBP/His construct cloned)
T1 sequence (Q53F19 1-282): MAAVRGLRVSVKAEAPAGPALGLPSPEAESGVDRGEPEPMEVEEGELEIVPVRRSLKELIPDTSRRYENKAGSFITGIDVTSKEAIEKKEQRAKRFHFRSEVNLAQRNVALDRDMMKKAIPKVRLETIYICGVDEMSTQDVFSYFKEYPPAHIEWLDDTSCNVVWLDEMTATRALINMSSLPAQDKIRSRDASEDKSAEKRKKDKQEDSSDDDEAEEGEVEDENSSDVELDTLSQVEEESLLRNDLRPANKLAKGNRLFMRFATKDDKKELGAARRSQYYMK

[2] = target: T2, recombinant NCBP3 from E. coli lysates (Homo sapiens, UniProt Q53F19); experiment: affinity purification on m7GTP-agarose from E. coli lysate, western blot; type: biochemical; conditions: compound immobilised as γ-aminohexyl m7GTP-agarose
T2 construct: full-length, N-terminal His tag (pETG10A-NCBP3; MBP/His version also made), E. coli BL21-AI lysate
T2 sequence (Q53F19 1-620): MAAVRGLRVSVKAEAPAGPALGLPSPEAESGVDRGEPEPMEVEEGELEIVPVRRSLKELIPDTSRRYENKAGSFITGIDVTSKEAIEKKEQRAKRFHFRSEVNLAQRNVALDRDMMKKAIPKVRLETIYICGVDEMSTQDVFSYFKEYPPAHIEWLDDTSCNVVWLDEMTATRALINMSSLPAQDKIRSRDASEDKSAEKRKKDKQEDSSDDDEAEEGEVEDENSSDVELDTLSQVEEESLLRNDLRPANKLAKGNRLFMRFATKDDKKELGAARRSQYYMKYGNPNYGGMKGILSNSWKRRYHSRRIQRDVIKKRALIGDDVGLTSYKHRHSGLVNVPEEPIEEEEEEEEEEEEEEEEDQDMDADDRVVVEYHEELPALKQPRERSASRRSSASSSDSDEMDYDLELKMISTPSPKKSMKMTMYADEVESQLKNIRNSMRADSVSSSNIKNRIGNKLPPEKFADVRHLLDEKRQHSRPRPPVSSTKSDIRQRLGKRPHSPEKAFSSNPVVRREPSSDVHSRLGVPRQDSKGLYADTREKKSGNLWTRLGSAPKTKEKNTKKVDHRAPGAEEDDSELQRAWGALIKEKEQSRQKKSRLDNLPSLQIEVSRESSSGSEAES

[3] = target: T3, NCBP3 (aa 1-282); C17orf85 (Homo sapiens, UniProt Q53F19, W155A/D157A/D158A); experiment: affinity purification on m7GTP-agarose, Coomassie SDS-PAGE; type: binding; conditions: compound immobilised as γ-aminohexyl m7GTP-agarose; WLDD motif mutant (ALAA)
T3 construct: N-terminal fragment 1-282 with core RRM; expressed in E. coli BL21-AI, purified; untagged for MST and CD (MBP/His construct cloned)
T3 sequence (Q53F19 1-282 W155A/D157A/D158A): T1 sequence (Q53F19 1-282) with W155A, D157A, D158A

[4] = tested on: NCBP3 1-282 (RRM fragment) (Homo sapiens); experiment: MST; conditions: 5' m7G cap (CAP0); 3' amino linker; MST: equal volumes of MST-1 (50 mM Tris-HCl pH 7.4, 150 mM NaCl, 10 mM MgCl2, 0.05% Tween-20; RNA 50 nM) and MST-2 (20 mM Tris-HCl pH 7.4, 300 mM NaCl, 5% …)

Row | Compound | affinity purification on m7GTP-agarose, Coomassie SDS-PAGE [1] | affinity purification on m7GTP-agarose from E. coli lysate, western blot [2] | loss of binding [3] | Kd [4] [µM]
1 | C[n+]1cn([C@@H]2O[C@H](COP(=O)(O)OP(=O)(O)OP(=O)(O)O)[C@@H](O)[C@H]2O)c2nc(N)[nH]c(=O)c21 [m^7GTP] | recombinant NCBP3 selectively bound m^7GTP but not GTP | m^7GTP versus GTP-affinity purification and western blotting of recombinant NCBP3 from E. coli lysates | mutation of the NCBP3 WLDD motif to ALAA resulted in loss of binding | 
2 | CAP-RNA oligo (CAP0), DyLight |  |  |  | 15.8
